# Source: US5281710A, “Dynemicin analogs: synthesis, methods of preparation and use” (The Scripps Research Institute, priority 1992, dated 1994)
# pIC50: −log10 of the molar value. Read-outs that look alike come from different tables or passages of the source.
# Key:
# [1] = system: HT-29 colon carcinoma cells; experiment: Sulforhodamine B cytotoxicity, HT-29; type: cell-based; details: Table 7, HT-29, read-out: Cytotoxicity (IC50)
# Method: (§1) In addition to the screening already discussed, several of the before-described compounds and chimeras were screened against several or all of a panel of ten to twenty-five cancerous cell lines as target cells and seven "normal" cell preparations. This screening utilized a sulforhodamine B cytotoxidity assay as discussed below.
# (§2) IC50 values; i.e., the concentration of Compound required to kill one-half of the treated cells, were then calculated.
# [2] = in vitro; type: cell-based, human; details: human, nhdf cells; Table 7, NHDF; read-out: Cytotoxicity (IC50)
# Method: as §1, §2
# (§3) NHDF Normal human dermal fibroblasts
# [3] = system: MCF-7 breast carcinoma cells; experiment: Sulforhodamine B cytotoxicity, MCF-7; type: cell-based; details: Table 7, MCF-7, read-out: Cytotoxicity (IC50)
# Method: as §1, §2
# [4] = system: UCLA P-3 non-small cell lung carcinoma cells; experiment: Sulforhodamine B cytotoxicity, UCLA-P3; type: cell-based, human; details: read-out: Cytotoxicity (IC50)
# Method: as §1, §2
# UCLA P-3 Dr. D. Morton, University of California, […]
# [5] = system: P-388 mouse lymphoma cells; experiment: Sulforhodamine B cytotoxicity, P-388; type: cell-based; details: Mus musculus, P388; Table 7, P-388; read-out: Cytotoxicity (IC50)
# Method: as §1, §2
# [6] = system: Ovcar-3 ovarian carcinoma cells; experiment: Sulforhodamine B cytotoxicity, Ovcar-3; type: cell-based; details: read-out: Cytotoxicity (IC50)
# Method: as §1, §2
# [7] = system: HL-60 promyeocytic leukemia cells; experiment: Sulforhodamine B cytotoxicity, HL-60; type: cell-based
# Method: as §1, §2
# [8] = system: SK-Mel-28 melanoma cells; experiment: Sulforhodamine B cytotoxicity, SK-Mel-28; type: cell-based; details: Homo sapiens
# Method: as §1, §2
# [9] = system: cancer cell lines; experiment: cells; type: cell-based; details: Average data obtained from 5~10 cell lines; read-out: IC50 (average)
# Method: as §1
# SULFORHODAMINE B CYTOTOXICITY ASSAY
# a. Stock drug solutions were prepared by dissolving drug in the appropriate solvent (determined during chemical characterization studies) and sterile filtering the drug-solvent solution through a sterile 0.2μ filter unit. An aliquot was taken from each filtered drug solution and the O.D. was measured to determine the drug concentration.
# f. Incubate (37° C., 5-10 percent CO2 in humidified incubator) plates for a total of 72 hours. Check plates at 24 hour intervals microscopically for signs of cytotoxicity.
# as §2
# All other cells or cell lines were obtained from the American Type Culture Collection (ATCC) (all except CHO cells are human or mouse cancer cell lines as described by the ATC).
# Tables 1 and 2 herein below provide average IC50 data from five to all ten of the above cancer cells lines for fused ring enediyne compounds disclosed herein. Those tables provide a generic structure and a description of the R group of that generic structure for each compound. Compound numbers as noted hereinbefore are also provided. Table 3 contains data for two fused-ring enediyne compounds (Compounds 47 and 120) as well as data for six chimers. Table 4 contains cancer cell and noraml cell cytotoxicity data for one select fused ring enediyne, Compound 153 against a number of "normal" cell preparations and tumor cell lines. Table 5 contains cancer cell and normal cell cytotoxicity data for another fused ring enediyne, Compound 250 against a similar panel of cells.
# [10] = system: Capan-1 pancreatic carcinoma cells; experiment: Sulforhodamine B cytotoxicity, Capan-1; type: cell-based
# Method: as §1, §2
# [11] = system: H-322 lung carcinoma cells; experiment: Sulforhodamine B cytotoxicity, H-322; type: cell-based; details: NCI-H322; Table 7, H-322; read-out: Cytotoxicity (IC50)
# Method: as §1, §2
# [12] = Sulforhodamine B cytotoxicity, CHO; type: cell-based, Chinese hamster; details: hamster, cho cells; Table 7, CHO; read-out: Cytotoxicity (IC50)
# Method: as §1, §2
# [13] = system: SK-Mel-28, M-14, M-21, Capan-1, Ovcar-3, Ovcar-4, UCLA-P-3, U-87, U-251 and Molt-4 cell lines; type: cell-based; details: ten tumor cell lines
# Method: In other studies, IC50 values were determined for the anti-tumor agents dynemicin A, calicheamicin γ1^I, taxol, vinblastine/vincristine, doxorubicin, actinomycin D and bleomycin sulfate against the SK-Mel-28, M-14, M-21, Capan-1, Ovcar-3, Ovcar-4, UCLA-P-3, U-87, U-251 and Molt-4 cell lines.
# [14] = Lethal dose / toxicity in mice; type: in vivo, mouse
# [15] = system: φX174 Form I DNA; experiment: φX174 supercoiled DNA cleavage, agarose gel; type: biochemical; details: for DNA cleavage: 37° C.
# Method: The ethereal solution of Compound 40 produced by the LiAlH4 reduction of Compound 21 (39 mg, 0.10 mmol) was evaporated in vacuo to dryness and the residue dissolved in THF (4 mL) to give a 25 mM solution of Compound 40, assuming complete conversion of Compound 21. […]
# Thus, a vial containing a 50 micromolar per base pair solution […] of the same buffer solution and 2.0 microliters of a 5.0 millimolar ethanol solution of Compound 40.
# […] A 2.0 microliter portion of glycerol loading buffer solution containing bromothymol blue indicator was added to each vial. A 10 microliter aliquot was then drawn from each. Gel electrophoresis analysis of the aliquots was performed using a 1.0 percent agarose gel with ethidium bromide run at 115 volts for 1 hour. DNA cleavage was indicated by the formation of nicked relaxed circular DNA (form II) or linearized DNA (form III), which was detected by visual inspection of the gel under 310 nanometer ultraviolet light using ethidium bromide.
# [16] = system: P-388 leukemia cells in Balb/c mice; experiment: In vivo P-388 leukemia in Balb/c mice; design: species or system mouse; details: single dose
# Method: In an in vivo study whose results are shown in FIG. 8, Balb/c mice were injected intra-peritoneally with 10^6 P-388 leukemia cells per mouse (the cells were suspended in 100 μl RPMI medium) on day zero. Therapy was started on day 1 by injecting each group of four animals with the indicated dose of Compound 45, which was administered only once in this assay. The course of therapy was followed by tumor-induced weight change in the animals and by recording death incidents (arrows). […] At the dose of 25 mg/kg Compound 45, the increase in life span over the control group was 175 percent (therapeutic group/control group).
# [17] = system: MCF-7(ADR) breast carcinoma cells; experiment: Sulforhodamine B cytotoxicity, MCF-7/ADR; type: cell-based; details: Homo sapiens, NCI/ADR-RES, Adriamycin resistant
# Method: as §1, §2
# [18] = system: 93 base-pair Sal I - Sph I double-stranded DNA fragment of pBR322; experiment: DNase I footprinting of oligosaccharide glycosides; type: binding; details: 37° C., 30 minutes pre-incubation
# Source text: Footprinting studies the O-methyl glycosides of saccharides A, an analog of C, F, G and H, Compounds A-1, C'-1, F-1, G-1 and H-1, respecitvely, as shown below, were designed to probe these questions.
# The oligosaccharides A-1, C'-1, F-1, G-1 and H-1 were obtained by chemical synthesis following procedures similar to those discussed before. The 93 base-pair Sal I - Sph I double-stranded DNA fragment of pBR322 was obtained enzymatically and was [5-^32 P]-labeled on one strand. pBR322 DNA was cleaved at the unique Sal I site, dephosphorylated using calf intestine phosphatase, (5'-^32 P]-phosphorylated using T4 polynucletide kinase and [g-^32 P] ATP (4.5 ^m Ci/pmol) , and cleaved again at the unique Sph I site. These precursors generated a 93 base-pair double-stranded fragment, (5'-^32 P)-labeled at the Sal I end, which was purified by gel electrophosresis in a nondenaturing 10 percent polyacrylamide gel and subsequent column chromatography on Sephadex G-25. The oligosaccharides were pre-incubated with the DNA fragment at 37° C. for 30 minutes and DNase I was added to cleave the DNA and generate footprinting patterns by autoradiography.
# The degree of protection against DNase I digestion offered by both the natural and unnatural stereoisomers was determined by comparing the amount of radioactivity in adjacent lanes along the electrophoresis gel. […]
# [19] = system: tumor cells and "normal" cells; experiment: Relative activity against tumor cells and normal cells; type: cell-based
# Source text: In contrast, 100 percent of normal human mammary epithelial cells (HMEC) were viable at the same concentration.
# [20] = system: MOLT-4 (Leukemia) cell line; experiment: cells; type: cell-based; details: read-out: Cytotoxicity (IC50)
# Method: as §1, §2
# [21] = system: NHDF normal human dermal fibroblasts; experiment: in vitro; type: cell-based; details: Table 7, NHDF
# Method: as §1, §2, §3
# [22] = system: CHO Chinese hamster ovary cells; experiment: Sulforhodamine B cytotoxicity, CHO; type: cell-based; details: Table 7, CHO
# Method: as §1, §2
# [23] = Homo sapiens, UCLA P-3, Table 7, UCLA-P3
# [24] = Homo sapiens, OVCAR-3, Table 7, Ovcar-3
# [25] = Homo sapiens, HL-60, Table 7, HL-60, read-out: Cytotoxicity (IC50)
# [26] = SK-MEL-28, Table 7, SK-Mel-28, read-out: Cytotoxicity (IC50)
# [27] = Homo sapiens, CAPAN-1, Table 7, Capan-1, read-out: Cytotoxicity (IC50)
# [28] = 5.0 mM, pH 8.5 and 9.0, 48 hours
compound,measurement,setting,value
O=C(Oc1ccccc1)N1c2ccccc2C23OC24CCCC3C#C/C=C\C#CC14 (stereo not drawn) [Compound 21],pIC50,"[1]; Homo sapiens, HT-29, 72 h",6.41
same,CC50,[2],6.3 µM
same,pIC50,"[3]; Homo sapiens, MCF7, 72 h",5.51
same,pIC50,[4]; [23],6.11
same,pIC50,[5],7.01
same,pIC50,[6]; [24],6.11
same,pIC50,[7]; [25],7.01
same,pIC50,[8]; [26],4.20
same,pIC50,[9],5.30
same,pIC50,[10]; [27],7.11
same,pIC50,[11],5.51
same,CC50,[12],6.3 µM
bleomycin sulfate [reference compound],relative potency among agents across cell lines,[13],considerably less active against all the cell lines
O=C(OCCS(=O)(=O)c1ccccc1)N1c2ccccc2C23OC24CCCC3C#C/C=C\C#CC14 (stereo not drawn) [Compound 45],toxicity relative to naturally occurring enediynes,[14],significantly less than naturally occurring enediynes
same,LD50,"[14]; mouse, in vivo",~50 mg/kg
same,pIC50,"[7]; Homo sapiens, HL-60, HL-60, read-out: IC50",5.41
same,pIC50,"[8]; SK-MEL-28, SK-Mel-28, read-out: IC50",5.20
same,DNA cleavage,"[15]; pH 8.5, 24 or 48 hours",strong DNA cleavage activity
same,DNA cleavage potency,"[15]; pH 8.5, 1000 and 100 μM",comparable potencies
same,deaths / weight course,[16]; 12 mg/kg,three of the four animals died
same,increase in life span over control group,[16]; 25 mg/kg,175%
same,time to death,"[16]; 50 mg/kg, rapid weight loss",≤ 8 days
same,pIC50,[17],5.80
same,pIC50,[9],6.70
same,pIC50,"[10]; Homo sapiens, CAPAN-1, Capan-1, read-out: IC50",5.80
CCNC1COC(OC2C(OC)OC(C)C(NOC3CC(O)C(SC(=O)c4c(C)c(I)c(OC5OC(C)C(O)C(OC)C5O)c(OC)c4OC)C(C)O3)C2O)CC1OC (stereo not drawn) [Compound G-1],protection of DNA against DNase I,[18],no protection at the same concentrations
CC(COC(=O)N1c2ccccc2C23OC24CCCC3C#CC=CC#CC14)S(=O)(=O)c1ccccc1 (stereo not drawn) [Compound 427],pIC50,[1]; 4320 min,6.11
same,CC50,[2],< 100 µM
same,pIC50,[3]; 4320 min,4.60
same,pIC50,"[4]; Table 7, UCLA-P3",5.51
same,pIC50,[5],5.80
same,pIC50,"[6]; Table 7, Ovcar-3",5.51
same,pIC50,"[7]; Table 7, HL-60, read-out: Cytotoxicity (IC50)",6.11
same,pIC50,[8]; [26],4.30
same,DNA cleavage,[15]; [28],greatly reduced in vitro DNA cleaving ability
same,selectivity between normal and cancer cells (qualitative),[19],reduced cytotoxicity of Compound 427 against normal cell lines while maintaining considerable activity against cancer cell lines
same,pIC50,"[20]; Table 7, Molt-4",9.00
same,pIC50,"[10]; Table 7, Capan-1, read-out: Cytotoxicity (IC50)",5.51
same,pIC50,[11],4.89
same,CC50,[12],< 100 µM
CCNC1COC(OC2C(OC)OC(C)C(NOC3CC(O)C(SC(=O)c4c(C)c(I)c(OC5OC(C)C(O)C(OC)C5O)c(OC)c4OC)C(C)O3)C2O)CC1OC (stereo not drawn) [Compound F-1],protection of DNA against DNase I,[18],concentration-dependent protection
CC(C)(COC(=O)N1c2ccccc2[C@@]23O[C@]24CCC[C@H]3C#C/C=C\C#C[C@H]14)S(=O)(=O)c1ccccc1 (relative stereo) [Compound 429],pIC50,"[1]; Homo sapiens, HT-29, 72 h",4.60
same,Cytotoxicity (IC50),[21],Non-Toxic
same,pIC50,"[3]; Homo sapiens, MCF7, 72 h",4.60
same,pIC50,[4]; [23],4.30
same,pIC50,[5],4.89
same,pIC50,[6]; [24],4.30
same,pIC50,[7]; [25],4.60
same,pIC50,[8]; [26],> 4.00
same,DNA cleavage,[15]; [28],no DNA cleaving ability
same,pIC50,"[20]; Homo sapiens, MOLT-4, Table 7, Molt-4",4.00
same,pIC50,[10]; [27],4.30
same,pIC50,[11],4.30
same,Cytotoxicity (IC50),[22],Non-Toxic
